Results taken from ChEMBL document CHEMBL5120866, “Design and Synthesis of Novel Celastrol Derivatives as Potential Anticancer Agents against Gastric Cancer Cells” (J Nat Prod, 2022).

Experiments:
[1] = tested on: MCF7; test: Antiproliferative activity against human MCF7 cells assessed as cell growth inhibition incubated for 48 hrs by MTT assay; assay type: functional, cell-based; details: MCF7, 48 h
[2] = tested on: HCT-116; test: Antiproliferative activity against human HCT-116 cells assessed as cell growth inhibition incubated for 48 hrs by MTT assay; assay type: functional, cell-based; details: HCT-116, 48 h
[3] = tested on: HeLa; test: Antiproliferative activity against human HeLa cells assessed as cell growth inhibition incubated for 48 hrs by MTT assay; assay type: functional, cell-based
[4] = tested on: BGC-823; test: Antiproliferative activity against human BGC-823 cells assessed as cell growth inhibition incubated for 48 hrs by MTT assay; assay type: functional, cell-based; details: BGC-823, 48 h
[5] = tested on: BGC-823; test: Antiproliferative activity against human BGC-823 cells assessed as cell growth inhibition at 0.5 uM incubated for 48 hrs by MTT assay relative to control; assay type: functional
[6] = tested on: HepG2; test: Antiproliferative activity against human HepG2 cells assessed as cell growth inhibition incubated for 48 hrs by MTT assay; assay type: functional, cell-based; details: HepG2, 48 h
[7] = tested on: BGC-823; test: Induction of apoptosis in human BGC-823 cells assessed as early apoptotic cells at 1 uM incubated for 24 hrs by annexin-V-FITC and PI staining based flow cytometry analysis (reference value: 2.4%); assay type: functional
[8] = tested on: BGC-823; test: Induction of apoptosis in human BGC-823 cells assessed as viable cells at 1 uM incubated for 24 hrs by annexin-V-FITC and PI staining based flow cytometry analysis (reference value: 96.3%); assay type: functional; details: read-out: Activity
[9] = tested on: BGC-823; test: Induction of apoptosis in human BGC-823 cells assessed as necrotic cells at 1 uM incubated for 24 hrs by annexin-V-FITC and PI staining based flow cytometry analysis (reference value: 0.6%); assay type: functional
[10] = tested on: BGC-823; test: Antitumor activity against human BGC-823 cells xenografted in athymic BALB/c nude mouse assessed as tumor growth inhibition rate at 1.5 mg/kg, ip measured every 2 days for 21 days by curson caliper method relative to control; assay type: functional; details: BGC-823, 504 h, time 21 day, read-out: TGI
[11] = tested on: BGC-823; test: Induction of apoptosis in human BGC-823 cells assessed as late apoptotic cells at 1 uM incubated for 24 hrs by annexin-V-FITC and PI staining based flow cytometry analysis (reference value: 0.6%); assay type: functional

Compound	IC50 [1] [nM]	IC50 [2] [nM]	IC50 [3] [nM]	IC50 [4] [nM]	inhibition at 0.5 µM [5] [%]	IC50 [6] [nM]	Activity [7] [%]	viability at 1 µM [8] [%]	Activity [9] [%]	inhibition in vivo at 1.5 mg/kg [10] [%]	Activity [11] [%]
COC(=O)c1cnn(CCCCOC(=O)[C@]2(C)CC[C@]3(C)CC[C@]4(C)C5=CC=C6C(=CC(=O)C(O)=C6C)[C@]5(C)CC[C@@]4(C)[C@@H]3C2)c1	840	690	820	340	> 50	820					
COC(=O)c1cnn(CCCOC(=O)[C@]2(C)CC[C@]3(C)CC[C@]4(C)C5=CC=C6C(=CC(=O)C(O)=C6C)[C@]5(C)CC[C@@]4(C)[C@@H]3C2)c1	520	590	610	280	> 50	390					
CC1=C(O)C(=O)C=C2C1=CC=C1[C@@]2(C)CC[C@@]2(C)[C@@H]3C[C@](C)(C(=O)OCCCCn4cc(C)cn4)CC[C@]3(C)CC[C@]12C	1000	880	910	430	> 50	840					
CC1=C(O)C(=O)C=C2C1=CC=C1[C@@]2(C)CC[C@@]2(C)[C@@H]3C[C@](C)(C(=O)O)CC[C@]3(C)CC[C@]12C [CELASTROL]	1700	1900	1700	1100		1500	16.1	79.7	0.2	76.5	4
CC1=C(O)C(=O)C=C2C1=CC=C1[C@@]2(C)CC[C@@]2(C)[C@@H]3C[C@](C)(C(=O)OCCCCn4cccn4)CC[C@]3(C)CC[C@]12C	1100	890	1100	470	> 50	860					
CC1=C(O)C(=O)C=C2C1=CC=C1[C@@]2(C)CC[C@@]2(C)[C@@H]3C[C@](C)(C(=O)OCCCCn4cc([N+](=O)[O-])cn4)CC[C@]3(C)CC[C@]12C	740	640	880	460	> 50	480					
CCOC(=O)c1cnn(CCCCOC(=O)[C@]2(C)CC[C@]3(C)CC[C@]4(C)C5=CC=C6C(=CC(=O)C(O)=C6C)[C@]5(C)CC[C@@]4(C)[C@@H]3C2)c1	720	530	750	330	> 50	700					
